# Measured values taken from patent US12239729B2, “TRPV3 agonists for the treatment of skin conditions” (Soricimed Biopharma Inc., priority 2012, dated 2025).
# Entries after “also recorded” stand apart in the source; their conditions may differ. Peptide text beside a SMILES is read from it.
# Assays:
# HaCaT cells [1] = assay: Cell death assay in HaCaT keratinocytes (Example 3); assay type: cell-based, human
# Protocol: In an initial experiment, various concentrations of SOR-C13 and SOR-C27 were tested on human keratinocytes (HaCaT cells) for their ability to cause cell death. The negative control was Phosphate Buffered Saline (PBS) and the positive control was Glycolic Acid (20 mM), a known activator of TRPV3. At the concentrations used (10, 100 and 1000 μM) only the 1000 μM concentration produced a statistically significant increase in cell death over PBS (FIG. 6). […] The two peptides appeared to be indistinguishable in their activity with respect to the number of dead cells
# Both peptides were dissolved in PBS at 30 mM concentration at ambient temperature based on the peptide content with a correction factor (SOR-C13 concentration was multiplied by 1.19, while SOR-C27 concentration was multiplied by 1.29). Stock solutions were sterilized by passing through a 0.2 μm syringe filter prewashed with PBS. Stocks of peptides were kept at −20° C. during the study.
# Human immortalized keratinocyte HaCaT cells (Cat. #T0020001) were from Addexbio Technologies (San Diego, California, USA). In general, HaCaT cells were cultured in 37° C. CO2 incubator in DEME with 1.0 g/L glucose (Lonza, Cat #12-707F) with 10% FBS. Glutamine (2 mM), penicillin (100 I.U.) and streptomycin (100 μg/ml) were added to the media. Cells were sub-cultured twice per week using Trypsin-0.25% EDTA to detach cells.
# HaCaT cells were plated at ˜8×10^5/well in each well of the 12-well tissue culture plates in triplicates in 2 ml culture media. Twenty-four (24) hours post-plating, cells were treated with PBS, or SOR-C13 at 10, 100 and 1000 μM, or SOR-C27 at 10, 100 and 1000 μM, or glycolic acid at 20 mM.
# At 72 hours post-treatment, the incubation was terminated and supernatant was collected. Attached cells were washed with 2 ml PBS, and trypsinized. Suspension of cells was combined with supernatant and spun at 1000 g for 5 minutes. The cell pellet was then resuspended in 100 μl PBS for cell counting using trypan blue exclusion.
# Student's t-test was used to compare the group treated with a test article vs. the group treated with PBS. Standard errors of mean (SEM) were used to represent variation of data.
# HaCaT cells [2] = assay: Wound healing (scratch gap closure) assay in HaCaT cells (Example 4); assay type: cell-based, human; conditions: for Migration Score (gap closure activity): HaCaT wound model
# Protocol: SOR-C13 and SOR-C27 were tested for their ability to promote tissue repair in a human keratinocytes (HaCaT) model of wound healing. In this model, cells are grown to confluency and then a gap is made in the sheet of cells by scratching the surface of the cells. After treating the cells for 24 hours, the closure of the gap, and the state of the cells in terms of polarization and mobility into the gap, are measured as a surrogate for activation of the wound healing response and the proliferation and/or migration of cells involved in tissue repair.
# HaCaT cells were plated at 4×10^5 per well in 12-well tissue culture plates in MEGM Bullet Kit (Lonza, Cat. #CC-3150) containing bovine pituitary extracts (BPE), hEGF, insulin, and hydrocortisone. The total volume was 2 ml. About 24 hours later, a gap at the bottom of each well was generated by scratching with a sterile pipette tip. The supernatant was aspirated and cells were washed gently once with PBS. Fresh media (MEGM Bullet Kit, 2 ml) was added after the wash. Cells were treated in duplicates with PBS, or SOR-C13 at 10, 100 and 1000 μM, or SOR-C27 at 10, 100 and 1000 μM, and 100 μM valproic acid. After 24 hours, each well was examined under the microscope to semi-quantify the gap closure by cell migration. A digital camera fixed to the microscope was used to capture images of cells.
# Under visual inspection, the wound healing results was scored as: • “−”: minimal cell polarization toward wound, no initiation of cell protrusion into the gap; no change in the wound gap; • “+”: cell polarization toward wound was observed; cell protrusion was observed; cell migration started but gap size is between 75 to 100% of original wound gap; • “++”: cell polarization toward the wound was observed; cell protrusion was observed; cell migration across the gap was observed, and gap size ≤½ of original wound gap; • “+++”: cell polarization toward wound was observed; cell protrusion was observed; cell migration across the gap was observed, and gap size ≤⅓ of original wound gap. Results
smiles,measurement,setting,value
"CC(C)C[C@H](NC(=O)[C@H](Cc1ccccc1)NC(=O)[C@H](CCC(=O)O)NC(=O)[C@@H](N)CCCCN)C(=O)N[C@@H](Cc1cnc[nH]1)C(=O)N1CCC[C@H]1C(=O)N[C@@H](CO)C(=O)N[C@@H](CCCCN)C(=O)N[C@H](C(=O)N[C@@H](CC(=O)O)C(=O)N[C@@H](CC(C)C)C(=O)N1CCC[C@H]1C(=O)N[C@@H](CCCNC(=N)N)C(=O)O)C(C)C [SOR-C13, KEFLHPSKVDLPR] (H-KEFLHPSKVDLPR-OH)",increase in cell death compared to PBS treatment,"HaCaT cells [1]; 1 mM, 72-hour incubation",~2 fold
same,induction of cell death compared to PBS,"HaCaT cells [1]; 1 mM, 72 hours, p<0.05",significantly induced cell death
same,number of dead cells,"HaCaT cells [1]; 1 mM, 72 hours, trypan blue exclusion",~2.2×10^4 /well
same,induction of cell death compared to PBS,"HaCaT cells [1]; 10 or 100 μM, 72 hours",no significant difference in the numbers of dead cells; also recorded: did not have a significant effect
same,effect on migration of HaCaT cells through the scratch (words),"HaCaT cells [2]; 10 μM, 24 hours",little difference compared to PBS treatment
same,Migration Score (gap closure activity),"HaCaT cells [2]; 10 uM, 24 hours",+ (cell polarization toward wound was observed; cell protrusion was observed; cell migration started but gap size is between 75 to 100% of original wound gap)
same,effect on migration of HaCaT cells through the scratch (words),"HaCaT cells [2]; 100 μM, 24 hours",clearly had an effect to induce cell migration
same,Migration Score (gap closure activity),"HaCaT cells [2]; 100 uM, 24 hours","++ (cell polarization toward the wound was observed; cell protrusion was observed; cell migration across the gap was observed, and gap size ≤½ of original wound gap)"
same,effect on migration of HaCaT cells through the scratch (words),"HaCaT cells [2]; 1000 μM, 24 hours",dramatically closed
same,Migration Score (gap closure activity),"HaCaT cells [2]; 1000 uM, 24 hours","+++ (cell polarization toward wound was observed; cell protrusion was observed; cell migration across the gap was observed, and gap size ≤⅓ of original wound gap)"
same,effect on migration of HaCaT cells over the tested concentrations,"HaCaT cells [2]; 10, 100, 1000 μM, 24 hours",promote tissue repair in a dose responsive manner; also recorded: dose-dependent effect on promoting the migration; also recorded: induced migration of HaCaT cells in a dose-dependent manner
same,concentrations at which wound healing of HaCaT cells was promoted,HaCaT cells [2]; 24-hour incubation,≥ 100 µM
